Measured values: US20210369680A1, “METHODS OF TREATING DISEASES AND DISORDERS RESULTING FROM BETA CORONAVIRUS INFECTION” (T3D Therapeutics, Inc., priority 2020, published 2021)

Columns and labels:
[1] = biological target: T1, P-glycoprotein (P-gp) (Homo sapiens, UniProt P08183); experiment: Effect of P-gp inhibitor verapamil on Caco-2 permeability; format: in vitro ADME
T1 construct: endogenous in cells; host or cells: Caco-2 cells
Excerpt: Example 18: Effect of P-gp Inhibitor Verapamil on Caco-2 Permeability of Compound of Example 11

[2] = Fasted plasma metabolomics, clinical study; format: in vivo, human
Experimental: Plasma Metabolomic Data from Clinical Study with Compound of Example 11
Fasted plasma metabolomics biomarkers were examined seeking evidence of systemic and brain pharmacological effects of Compound from Example 11. Over 800 chemically defined metabolites were examined for each dose group and a ratio EOT/BL) was calculated with an associated p value. Four dose groups were tested, 3, 10 30 and 90 mg. In general, the 30 and 90 mg dose groups had the largest impact on the metabolomics profile, each with 120 metabolites with p<0.05, while the 3 and 10 mg groups had smaller effects (40 and 61 with p<0.05 respectively). The metabolites were split into about 60 families. […] BCAAs are positively correlated with insulin resistance and diabetes. […] Some of these metabolites, such as isovaleryl and isobutyryl carnitine are part of a principal component shown to be positively associated with insulin resistance. The numbers in Table 7 are ratios of the dose group averages end of treatment (EOT) to baseline (BL). A green box indicates a statistically significant (p<0.05) decrease in metabolite. The light green indicates the p value is between 0.05 and 0.1. Statistical comparisons between doses and visits were conducted using Two-Way Repeated Measure ANOVA. Reference is made to Newgard CB, 2017. Metabolomics and Metabolic Disease, Where Do We Stand? Cell Metabolism 25: 43-56, which is incorporated by reference with regard to the example.

T1 sequence (P08183 whole entry): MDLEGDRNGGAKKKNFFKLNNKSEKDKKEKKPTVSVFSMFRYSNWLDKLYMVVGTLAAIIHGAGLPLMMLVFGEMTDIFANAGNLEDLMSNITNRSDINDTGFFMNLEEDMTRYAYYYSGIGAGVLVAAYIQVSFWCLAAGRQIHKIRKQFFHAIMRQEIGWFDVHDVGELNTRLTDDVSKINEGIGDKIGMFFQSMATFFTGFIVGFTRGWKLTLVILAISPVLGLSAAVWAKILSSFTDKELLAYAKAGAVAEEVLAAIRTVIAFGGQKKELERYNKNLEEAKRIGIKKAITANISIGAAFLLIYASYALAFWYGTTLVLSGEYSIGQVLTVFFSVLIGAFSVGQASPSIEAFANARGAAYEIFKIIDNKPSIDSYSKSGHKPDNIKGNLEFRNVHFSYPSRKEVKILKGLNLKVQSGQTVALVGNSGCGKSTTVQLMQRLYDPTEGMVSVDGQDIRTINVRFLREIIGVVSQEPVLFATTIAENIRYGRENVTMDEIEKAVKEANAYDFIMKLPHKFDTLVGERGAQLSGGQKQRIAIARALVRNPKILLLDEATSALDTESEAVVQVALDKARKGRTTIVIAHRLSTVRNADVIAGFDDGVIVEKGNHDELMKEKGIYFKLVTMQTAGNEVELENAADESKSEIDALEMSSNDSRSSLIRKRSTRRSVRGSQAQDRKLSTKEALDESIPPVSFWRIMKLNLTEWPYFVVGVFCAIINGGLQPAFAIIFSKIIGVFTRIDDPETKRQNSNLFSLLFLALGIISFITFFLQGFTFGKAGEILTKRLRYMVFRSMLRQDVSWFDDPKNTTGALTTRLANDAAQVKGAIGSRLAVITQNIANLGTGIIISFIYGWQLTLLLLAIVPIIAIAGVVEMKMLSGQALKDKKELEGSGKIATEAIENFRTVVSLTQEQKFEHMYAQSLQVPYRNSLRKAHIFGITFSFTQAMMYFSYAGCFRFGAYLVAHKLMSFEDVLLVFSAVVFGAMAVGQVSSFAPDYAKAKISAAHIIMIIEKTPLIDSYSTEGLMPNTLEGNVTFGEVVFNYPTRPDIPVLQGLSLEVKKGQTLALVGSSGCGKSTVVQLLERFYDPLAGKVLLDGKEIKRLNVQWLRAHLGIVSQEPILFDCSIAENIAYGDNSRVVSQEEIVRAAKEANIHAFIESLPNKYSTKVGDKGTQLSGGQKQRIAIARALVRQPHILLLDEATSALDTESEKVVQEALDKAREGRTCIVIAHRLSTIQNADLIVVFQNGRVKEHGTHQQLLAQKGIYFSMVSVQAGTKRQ

SMILES: CCc1oc(-c2ccc(OC)cc2)nc1CCOc1ccc2c(c1)CC[C@H]2CC(=O)[O-].[Na+] [Example 11, Sodium (S)-2-(5-(2-(5-ethyl-2-(4-methoxyphenyl)oxazol-4-yl)ethoxy)-2,3-dihydro-1H-inden-1-yl)acetate]
- substrate for P-gp [1]: not a substrate
- 2-methylbutyrylcarnitine (C5), ratio EOT/BL ([2]; 3 mg): 0.99
- 3-hydroxybutyrlcarnite, ratio EOT/BL ([2]; 3 mg): 1.2
- Adrenoylcarnitine (C22:4)*, ratio EOT/BL ([2]; 3 mg): 1.41
- Arachidonoylcarnitine (C20:4), ratio EOT/BL ([2]; 3 mg): 1.34
- Arachidoylcarnitine (C20)*, ratio EOT/BL ([2]; 3 mg): 1.11
- Ceramide (d18:2/24:1, d18:1/24:2), ratio EOT/BL ([2]; 3 mg): 1.08
- Dihomo-linoleoylcarnitine (C20:2)*, ratio EOT/BL ([2]; 3 mg): 1.24
- Docosapentaenoylcarnitine (C22:5n3)*, ratio EOT/BL ([2]; 3 mg): 1.39
- Eicosenoylcarnitine (C20:1), ratio EOT/BL ([2]; 3 mg): 1.22
- Linolenoylcarnitine (C18:3)*, ratio EOT/BL ([2]; 3 mg): 1.17
- Linoleoylcarnitine (C18:2)*, ratio EOT/BL ([2]; 3 mg): 1.22
- Margaroylcarnitine*, ratio EOT/BL ([2]; 3 mg): 1.03
- Myristoycarnitine (C14), ratio EOT/BL ([2]; 3 mg): 1.32
- N-acetylleucine, ratio EOT/BL ([2]; 3 mg): 0.98
- N-palmitoyl-sphingosince (d18:1/16:0), ratio EOT/BL ([2]; 3 mg): 1.06
- N-stearoyl-sphinogosince (d18:1/18:0), ratio EOT/BL ([2]; 3 mg): 1.05
- Oleoylcarnitine (C18:1), ratio EOT/BL ([2]; 3 mg): 1.34
- Palmitoleoylcarnitine (C16:1)*, ratio EOT/BL ([2]; 3 mg): 1.44
- Palmitoylcaritine (C16), ratio EOT/BL ([2]; 3 mg): 1.25
- Stearoylcarnitine (C18), ratio EOT/BL ([2]; 3 mg): 1.11
- acetylcarnitine (C2), ratio EOT/BL ([2]; 3 mg): 1.14
- ceramide (d16:1/24:1, d18:1/22:1), ratio EOT/BL ([2]; 3 mg): 1.13
- ceramide (d18:1/14:0, d16:1/16:0), ratio EOT/BL ([2]; 3 mg): 1.1
- ceramide (d18:1/17:0, d17:1/18:0), ratio EOT/BL ([2]; 3 mg): 1.03
- ceramide (d18:1/20:0, d16:1/22:0 d20:1/18:0), ratio EOT/BL ([2]; 3 mg): 1.12
- isobutyrylcarnitine (C4), ratio EOT/BL ([2]; 3 mg): 0.95
- isoleucine, ratio EOT/BL ([2]; 3 mg): 0.93
- isovalerylcarnitine (C5), ratio EOT/BL ([2]; 3 mg): 1.11
- laurylcarnitine (C12), ratio EOT/BL ([2]; 3 mg): 1.4
- leucine, ratio EOT/BL ([2]; 3 mg): 0.95
- number of metabolites with p<0.05 ([2]; 3 mg): 40
- octanoylcarnitine (C8), ratio EOT/BL ([2]; 3 mg): 1.33
- valine, ratio EOT/BL ([2]; 3 mg): 0.93
- 2-methylbutyrylcarnitine (C5), ratio EOT/BL ([2]; 10 mg): 1.02
- 3-hydroxybutyrlcarnite, ratio EOT/BL ([2]; 10 mg): 1.19
- Adrenoylcarnitine (C22:4)*, ratio EOT/BL ([2]; 10 mg): 1.23
- Arachidonoylcarnitine (C20:4), ratio EOT/BL ([2]; 10 mg): 1.23
- Arachidoylcarnitine (C20)*, ratio EOT/BL ([2]; 10 mg): 1.09
- Ceramide (d18:2/24:1, d18:1/24:2), ratio EOT/BL ([2]; 10 mg): 0.96
- Dihomo-linoleoylcarnitine (C20:2)*, ratio EOT/BL ([2]; 10 mg): 1.24
- Docosapentaenoylcarnitine (C22:5n3)*, ratio EOT/BL ([2]; 10 mg): 1.18
- Eicosenoylcarnitine (C20:1), ratio EOT/BL ([2]; 10 mg): 1.03
- Linolenoylcarnitine (C18:3)*, ratio EOT/BL ([2]; 10 mg): 1.19
- Linoleoylcarnitine (C18:2)*, ratio EOT/BL ([2]; 10 mg): 1.21
- Margaroylcarnitine*, ratio EOT/BL ([2]; 10 mg): 1.15
- Myristoycarnitine (C14), ratio EOT/BL ([2]; 10 mg): 1.13
- N-acetylleucine, ratio EOT/BL ([2]; 10 mg): 1
- N-palmitoyl-sphingosince (d18:1/16:0), ratio EOT/BL ([2]; 10 mg): 1.02
- N-stearoyl-sphinogosince (d18:1/18:0), ratio EOT/BL ([2]; 10 mg): 0.98
- Oleoylcarnitine (C18:1), ratio EOT/BL ([2]; 10 mg): 1.1
- Palmitoleoylcarnitine (C16:1)*, ratio EOT/BL ([2]; 10 mg): 1.11
- Palmitoylcaritine (C16), ratio EOT/BL ([2]; 10 mg): 1.12
- Stearoylcarnitine (C18), ratio EOT/BL ([2]; 10 mg): 1.19
- acetylcarnitine (C2), ratio EOT/BL ([2]; 10 mg): 1.03
- ceramide (d16:1/24:1, d18:1/22:1), ratio EOT/BL ([2]; 10 mg): .095
- ceramide (d18:1/14:0, d16:1/16:0), ratio EOT/BL ([2]; 10 mg): 1.05
- ceramide (d18:1/17:0, d17:1/18:0), ratio EOT/BL ([2]; 10 mg): 1.12
- ceramide (d18:1/20:0, d16:1/22:0 d20:1/18:0), ratio EOT/BL ([2]; 10 mg): 1.05
- isobutyrylcarnitine (C4), ratio EOT/BL ([2]; 10 mg): 1.01
- isoleucine, ratio EOT/BL ([2]; 10 mg): 0.94
- isovalerylcarnitine (C5), ratio EOT/BL ([2]; 10 mg): 0.97
- laurylcarnitine (C12), ratio EOT/BL ([2]; 10 mg): 1.17
- leucine, ratio EOT/BL ([2]; 10 mg): 0.98
- number of metabolites with p<0.05 ([2]; 10 mg): 61
- octanoylcarnitine (C8), ratio EOT/BL ([2]; 10 mg): 1.21
- valine, ratio EOT/BL ([2]; 10 mg): 1.06
- 2-methylbutyrylcarnitine (C5), ratio EOT/BL ([2]; 30 mg): 0.96
- 3-hydroxybutyrlcarnite, ratio EOT/BL ([2]; 30 mg): 1.26
- Adrenoylcarnitine (C22:4)*, ratio EOT/BL ([2]; 30 mg): 1.44
- Arachidonoylcarnitine (C20:4), ratio EOT/BL ([2]; 30 mg): 1.34
- Arachidoylcarnitine (C20)*, ratio EOT/BL ([2]; 30 mg): 1.16
- Ceramide (d18:2/24:1, d18:1/24:2), ratio EOT/BL ([2]; 30 mg): 0.92
- Dihomo-linoleoylcarnitine (C20:2)*, ratio EOT/BL ([2]; 30 mg): 1.47
- Docosapentaenoylcarnitine (C22:5n3)*, ratio EOT/BL ([2]; 30 mg): 1.65
- Eicosenoylcarnitine (C20:1), ratio EOT/BL ([2]; 30 mg): 1.43
- Linolenoylcarnitine (C18:3)*, ratio EOT/BL ([2]; 30 mg): 1.35
- Linoleoylcarnitine (C18:2)*, ratio EOT/BL ([2]; 30 mg): 1.37
- Margaroylcarnitine*, ratio EOT/BL ([2]; 30 mg): 1.14
- Myristoycarnitine (C14), ratio EOT/BL ([2]; 30 mg): 1.29
- N-acetylleucine, ratio EOT/BL ([2]; 30 mg): 0.91
- N-palmitoyl-sphingosince (d18:1/16:0), ratio EOT/BL ([2]; 30 mg): 0.89
- N-stearoyl-sphinogosince (d18:1/18:0), ratio EOT/BL ([2]; 30 mg): 0.82
- Oleoylcarnitine (C18:1), ratio EOT/BL ([2]; 30 mg): 1.51
- Palmitoleoylcarnitine (C16:1)*, ratio EOT/BL ([2]; 30 mg): 1.66
- Palmitoylcaritine (C16), ratio EOT/BL ([2]; 30 mg): 1.29
- Stearoylcarnitine (C18), ratio EOT/BL ([2]; 30 mg): 1.24
- acetylcarnitine (C2), ratio EOT/BL ([2]; 30 mg): 1.19
- ceramide (d16:1/24:1, d18:1/22:1), ratio EOT/BL ([2]; 30 mg): 0.71
- ceramide (d18:1/14:0, d16:1/16:0), ratio EOT/BL ([2]; 30 mg): 0.86
- ceramide (d18:1/17:0, d17:1/18:0), ratio EOT/BL ([2]; 30 mg): 0.91
- ceramide (d18:1/20:0, d16:1/22:0 d20:1/18:0), ratio EOT/BL ([2]; 30 mg): 0.83
- isobutyrylcarnitine (C4), ratio EOT/BL ([2]; 30 mg): 0.77
- isoleucine, ratio EOT/BL ([2]; 30 mg): 0.96
- isovalerylcarnitine (C5), ratio EOT/BL ([2]; 30 mg): 0.99
- laurylcarnitine (C12), ratio EOT/BL ([2]; 30 mg): 1.35
- leucine, ratio EOT/BL ([2]; 30 mg): 1
- number of metabolites with p<0.05 ([2]; 30 mg): 120
- octanoylcarnitine (C8), ratio EOT/BL ([2]; 30 mg): 1.44
- valine, ratio EOT/BL ([2]; 30 mg): 0.96
- 2-methylbutyrylcarnitine (C5), ratio EOT/BL ([2]; 90 mg): 0.81
- 3-hydroxybutyrlcarnite, ratio EOT/BL ([2]; 90 mg): 1.53
- Adrenoylcarnitine (C22:4)*, ratio EOT/BL ([2]; 90 mg): 1.54
- Arachidonoylcarnitine (C20:4), ratio EOT/BL ([2]; 90 mg): 1.31
- Arachidoylcarnitine (C20)*, ratio EOT/BL ([2]; 90 mg): 1.17
- Ceramide (d18:2/24:1, d18:1/24:2), ratio EOT/BL ([2]; 90 mg): 0.99
- Dihomo-linoleoylcarnitine (C20:2)*, ratio EOT/BL ([2]; 90 mg): 1.54
- Docosapentaenoylcarnitine (C22:5n3)*, ratio EOT/BL ([2]; 90 mg): 1.45
- Eicosenoylcarnitine (C20:1), ratio EOT/BL ([2]; 90 mg): 1.61
- Linolenoylcarnitine (C18:3)*, ratio EOT/BL ([2]; 90 mg): 1.25
- Linoleoylcarnitine (C18:2)*, ratio EOT/BL ([2]; 90 mg): 1.22
- Margaroylcarnitine*, ratio EOT/BL ([2]; 90 mg): 1.21
- Myristoycarnitine (C14), ratio EOT/BL ([2]; 90 mg): 1.56
- N-acetylleucine, ratio EOT/BL ([2]; 90 mg): 0.82
- N-palmitoyl-sphingosince (d18:1/16:0), ratio EOT/BL ([2]; 90 mg): 0.89
- N-stearoyl-sphinogosince (d18:1/18:0), ratio EOT/BL ([2]; 90 mg): 0.82
- Oleoylcarnitine (C18:1), ratio EOT/BL ([2]; 90 mg): 1.46
- Palmitoleoylcarnitine (C16:1)*, ratio EOT/BL ([2]; 90 mg): 1.79
- Palmitoylcaritine (C16), ratio EOT/BL ([2]; 90 mg): 1.31
- Stearoylcarnitine (C18), ratio EOT/BL ([2]; 90 mg): 1.18
- acetylcarnitine (C2), ratio EOT/BL ([2]; 90 mg): 1.23
- ceramide (d16:1/24:1, d18:1/22:1), ratio EOT/BL ([2]; 90 mg): 0.84
- ceramide (d18:1/14:0, d16:1/16:0), ratio EOT/BL ([2]; 90 mg): 0.77
- ceramide (d18:1/17:0, d17:1/18:0), ratio EOT/BL ([2]; 90 mg): 0.84
- ceramide (d18:1/20:0, d16:1/22:0 d20:1/18:0), ratio EOT/BL ([2]; 90 mg): 0.84
- isobutyrylcarnitine (C4), ratio EOT/BL ([2]; 90 mg): 0.57
- isoleucine, ratio EOT/BL ([2]; 90 mg): 0.84
- isovalerylcarnitine (C5), ratio EOT/BL ([2]; 90 mg): 0.68
- laurylcarnitine (C12), ratio EOT/BL ([2]; 90 mg): 1.56
- leucine, ratio EOT/BL ([2]; 90 mg): 0.8
- number of metabolites with p<0.05 ([2]; 90 mg): 120
- octanoylcarnitine (C8), ratio EOT/BL ([2]; 90 mg): 1.58
- valine, ratio EOT/BL ([2]; 90 mg): 0.79
